Target: c-Met (Homo sapiens, UniProt P08581)
Assay: radiometric protein kinase assay with recombinant human c-Met
Type: biochemical

Chain of c-Met (P08581 25-307): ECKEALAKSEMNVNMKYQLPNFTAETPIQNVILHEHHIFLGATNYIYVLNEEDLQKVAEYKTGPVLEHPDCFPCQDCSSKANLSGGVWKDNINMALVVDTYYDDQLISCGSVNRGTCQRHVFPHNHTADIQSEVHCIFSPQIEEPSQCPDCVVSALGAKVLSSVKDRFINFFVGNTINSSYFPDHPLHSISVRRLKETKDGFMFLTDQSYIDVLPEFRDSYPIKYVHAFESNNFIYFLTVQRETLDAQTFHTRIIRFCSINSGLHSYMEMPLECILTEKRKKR
Chain of c-Met (P08581 308-1390): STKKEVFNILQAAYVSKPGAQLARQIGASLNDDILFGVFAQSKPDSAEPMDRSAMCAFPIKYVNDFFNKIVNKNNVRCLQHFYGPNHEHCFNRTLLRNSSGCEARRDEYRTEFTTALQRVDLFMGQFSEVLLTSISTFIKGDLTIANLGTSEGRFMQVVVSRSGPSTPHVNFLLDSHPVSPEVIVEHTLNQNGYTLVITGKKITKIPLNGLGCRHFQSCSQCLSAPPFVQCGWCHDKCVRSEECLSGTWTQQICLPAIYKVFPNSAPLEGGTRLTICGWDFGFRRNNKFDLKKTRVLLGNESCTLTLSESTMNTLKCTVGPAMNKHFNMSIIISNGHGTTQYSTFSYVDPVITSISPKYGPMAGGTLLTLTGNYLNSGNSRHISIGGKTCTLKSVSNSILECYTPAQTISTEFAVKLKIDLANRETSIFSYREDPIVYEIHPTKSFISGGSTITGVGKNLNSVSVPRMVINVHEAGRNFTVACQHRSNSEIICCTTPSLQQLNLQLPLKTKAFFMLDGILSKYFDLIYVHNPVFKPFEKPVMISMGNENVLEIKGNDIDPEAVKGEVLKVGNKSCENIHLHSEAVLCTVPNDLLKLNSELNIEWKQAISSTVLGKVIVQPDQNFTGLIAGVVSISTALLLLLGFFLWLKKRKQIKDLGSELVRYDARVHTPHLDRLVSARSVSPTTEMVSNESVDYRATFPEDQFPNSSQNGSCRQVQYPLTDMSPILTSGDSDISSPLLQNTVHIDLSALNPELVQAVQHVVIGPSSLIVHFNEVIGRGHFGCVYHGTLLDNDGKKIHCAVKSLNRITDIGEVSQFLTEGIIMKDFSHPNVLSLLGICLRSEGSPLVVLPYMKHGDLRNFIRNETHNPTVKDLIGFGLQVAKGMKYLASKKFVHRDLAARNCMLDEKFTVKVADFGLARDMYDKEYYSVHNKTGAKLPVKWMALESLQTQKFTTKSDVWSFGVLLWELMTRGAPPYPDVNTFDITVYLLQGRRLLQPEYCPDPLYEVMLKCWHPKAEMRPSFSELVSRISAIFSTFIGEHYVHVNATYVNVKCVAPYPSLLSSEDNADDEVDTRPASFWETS

IC50: 5.1 ± 0.1 µM
Structure (SMILES): COc1c(C=O)c(O)cc2c1C(=O)c1ccccc1C2=O [damnacanthal, 3-hydroxy-1-methoxy-anthraquinone-2-aldehyde]

— article PMC4306130 (Scientific Reports, 2015)
